The test has as its target human factor Xa (FXa) (Homo sapiens, UniProt P00742). The test can be described thus: Factor Xa inhibition, fluorogenic assay. The format is biochemical. The conditions noted are these: fluorogenic substrate Boc-Ile-Glu-Gly-Arg-AMC, human FXa 1.3 nmol/l, pH 7.4, 22° C. The protocol:
The enzymatic activity of human factor Xa (FXa) is measured using the conversion of a fluorogenic substrate specific for FXa. FXa cleaves aminomethylcoumarin, whose fluorescence is measured, from the peptidic substrate. The determinations are carried out in microtitre plates.
Substances to be tested, in various concentrations, are dissolved in dimethyl sulphoxide and incubated for 15 min at 22° C. with human FXa (1.3 nmol/l dissolved in 50 mmol/l of Tris buffer [C,C,C-tris(hydroxymethyl)aminomethane], 100 mmol/l NaCl, 0.1% BSA [bovine serum albumin], pH 7.4). The fluorogenic substrate (5 μmol/l of Boc-Ile-Glu-Gly-Arg-AMC from Bachem) is then added. After an incubation time of 30 min, the sample is excited at a wavelength of 360 nm, and the emission at 460 nm is measured. The measured emissions of the test batches with test substance are compared to the control batches without test substance (only dimethyl sulphoxide instead of test substance in dimethyl sulphoxide), and IC50 values are calculated from the concentration/activity relationships.

As usually defined, the IC50 is the concentration that inhibits the measured activity by half. Low readings indicate greater potency in that assay, high ones weaker potency in that assay.

human factor Xa (FXa), sequence (P00742 235-488 limits assumed): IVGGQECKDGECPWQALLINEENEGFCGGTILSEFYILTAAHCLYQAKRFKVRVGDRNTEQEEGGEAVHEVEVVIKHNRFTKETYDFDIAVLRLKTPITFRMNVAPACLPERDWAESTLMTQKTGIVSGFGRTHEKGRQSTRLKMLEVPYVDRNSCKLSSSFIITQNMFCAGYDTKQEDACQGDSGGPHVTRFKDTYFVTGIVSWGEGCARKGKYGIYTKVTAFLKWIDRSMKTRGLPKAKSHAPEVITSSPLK
human factor Xa (FXa), sequence (P00742 41-179 partner limits assumed): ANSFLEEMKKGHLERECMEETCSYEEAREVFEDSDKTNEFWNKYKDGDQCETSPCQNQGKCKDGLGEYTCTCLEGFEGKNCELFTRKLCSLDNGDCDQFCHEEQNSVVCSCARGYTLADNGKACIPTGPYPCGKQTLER

Regarding `O=C(NC[C@H]1CN(c2ccc(N3CCOCC3=O)cc2F)C(=O)O1)c1ccc(Cl)s1` [Example 1, 5-Chloro-N-({(5S)-3-[2-fluoro-4-(3-oxomorpholin-4-yl)phenyl]-2-oxo-1,3-oxazolidin-5-yl}methyl)thiophene-2-carboxamide], the IC50 was determined as 0.9 nM. Under `O=C(NC[C@H]1CN(c2ccc(N3CCCCC3=O)cc2F)C(=O)O1)c1ccc(Cl)s1` [Example 11, 5-Chloro-N-({(5S)-3-[2-fluoro-4-(2-oxopiperidin-1-yl)phenyl]-2-oxo-1,3-oxazolidin-5-yl}methyl)thiophene-2-carboxamide] stands 2.2 nM. In the case of `O=C(NC[C@H]1CN(c2ccc(N3CCOCC3=O)cc2Cl)C(=O)O1)c1ccc(Cl)s1` [Example 12, 5-Chloro-N-({(5S)-3-[2-chloro-4-(3-oxomorpholin-4-yl)phenyl]-2-oxo-1,3-oxazolidin-5-yl}methyl)thiophene-2-carboxamide], 1.8 nM corresponded to half-maximal inhibition (IC50).

The compound `O=C(NC[C@H]1CN(c2ccc(-n3cccc(CO)c3=O)cc2F)C(=O)O1)c1ccc(Cl)s1` [Example 22, 5-Chloro-N-{[(5S)-3-{2-fluoro-4-[3-(hydroxymethyl)-2-oxopyridin-1(2H)-yl]phenyl}-2-oxo-1,3-oxazolidin-5-yl]methyl}thiophene-2-carboxamide] showed an IC50 of 0.9 nM.

For the origin of these results see US20100184767A1, “SUBSTITUTED OXAZOLIDINONES AND USE THEREOF” (priority 2007, published 2010).
